This experiment concerns BDF1 mice, B16 melanoma ip, median survival T/C. The experiment in a line: NCI In Vivo Anticancer Drug Screen. Data for tumor model B16 Melanoma (intraperitoneal) in B6D2F1 (BDF1) mice. Conditions: endpoint: median survival time, higher = longer survival. A digest of the protocol:
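Read-out: survival or tumor size, given as treated/control ratio. Controls received vehicle only; animals bore transplantable tumors.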

Setting [1] is: dose: 12.5 mg/kg/injection, schedule: Q01DX009 (ip), vehicle: saline with Tween-80.
Setting [2] is: dose: 25.0 mg/kg/injection, schedule: Q01DX009 (ip), vehicle: saline with Tween-80.
[3] abbreviates: dose: 25.0 mg/kg/injection, schedule: Q04DX003 (ip), vehicle: saline with Tween-80.
Where [4] appears, read: dose: 6.25 mg/kg/injection, schedule: Q01DX009 (ip), vehicle: Klucel (hydroxypropylcellulose) (HPC).
The mark [5] stands for this setting: dose: 12.5 mg/kg/injection, schedule: Q01DX009 (ip), vehicle: Klucel (hydroxypropylcellulose) (HPC).
Setting [6] is: dose: 25.0 mg/kg/injection, schedule: Q01DX009 (ip), vehicle: Klucel (hydroxypropylcellulose) (HPC).
The mark [7] stands for this setting: dose: 3.12 mg/kg/injection, schedule: Q01DX009 (ip), vehicle: saline.
The mark [8] stands for this setting: dose: 6.25 mg/kg/injection, schedule: Q01DX009 (ip), vehicle: saline.
Setting [9] is: dose: 12.5 mg/kg/injection, schedule: Q01DX009 (ip), vehicle: saline.
Setting [10] is: dose: 25.0 mg/kg/injection, schedule: Q01DX009 (ip), vehicle: saline.
Where [11] appears, read: dose: 50.0 mg/kg/injection, schedule: Q01DX009 (ip), vehicle: saline.
Setting [12] is: dose: 100.0 mg/kg/injection, schedule: Q01DX009 (ip), vehicle: saline with Tween-80.
[13] abbreviates: dose: 200.0 mg/kg/injection, schedule: Q01DX009 (ip), vehicle: saline with Tween-80.
Setting [14] is: dose: 400.0 mg/kg/injection, schedule: Q01DX009 (ip), vehicle: saline with Tween-80.
Where [15] appears, read: dose: 50.0 mg/kg/injection, schedule: Q01DX009 (ip), vehicle: saline with Tween-80.
Where [16] appears, read: dose: 50.0 mg/kg/injection, schedule: Q01DX009 (ip), vehicle: Klucel (hydroxypropylcellulose) (HPC).

Where “and” joins values, the source holds several entries; their conditions need not be identical. Equal values may be shown once. Toxic doses and inconclusive results are not listed.

This note sets out measurements from PubChem BioAssay AID192 (DTP/NCI, 2004).

Regarding `COc1ccc(/C=C/c2ccc3ccccc3[n+]2C)c(OC)c1OC`, the T/C is 104 % of control (dose: 2.5 mg/kg/injection, schedule: Q01DX009 (ip), vehicle: saline) and 113 % of control (dose: 5.0 mg/kg/injection, schedule: Q01DX009 (ip), vehicle: saline).

As for `CCCC(C)C/C(C)=C/C(C)(C)C(CC(=O)N1CCOCC1)C(=O)O` (centres undefined), the T/C is, setting by setting: under setting [1], 100 % of control; under setting [2], 92 % of control; under setting [3], 92 % of control; (dose: 50.0 mg/kg/injection, schedule: Q04DX003 (ip), vehicle: saline with Tween-80) 92 % of control.

For the compound `CCCc1c(Cl)nc(Cl)nc1Cl`, the T/C by setting is: under setting [4], 110 % of control; under setting [5], 103 % of control; under setting [6], 101 % of control and 109 % of control.

Regarding `COc1cc(Cc2nccc3cc(OC)c(OC)cc23)c(C(C)=O)cc1OC`, the T/C was 93 % of control under setting [7]; 102 % of control under setting [8]; 97 % of control under setting [9]; 103 % of control under setting [10]; 100 % of control under setting [11].

In the case of `NC(Cc1ccc(O)cc1)C(=O)OCc1ccccc1` (centres undefined), the T/C is, setting by setting: under setting [12], 102 % of control; under setting [13], 114 % of control; under setting [14], 98 % of control.

On to `CCCCCCCCCCCCCCCCCCOCC(COP(=O)([O-])OCC[N+](C)(C)C)OC` (centres undefined), for which the T/C is 91 % of control under setting [7], 95 % of control under setting [8], 92 % of control under setting [9] and 87 % of control under setting [10].

With `CNCCCC1c2ccccc2C=Cc2ccccc21`, the T/C by setting is: (dose: 1.56 mg/kg/injection, schedule: Q01DX009 (ip), vehicle: saline) 106 % of control; under setting [7], 118 % of control; under setting [8], 103 % of control; under setting [9], 112 % of control; under setting [10], 109 % of control.

`NNCCc1ccccc1`: the T/C under setting [7] is 94 % of control, the T/C under setting [9] was 117 % of control, the T/C under setting [10] is 100 % of control and the T/C under setting [11] is 97 % of control.

`CC(=O)OC1C(OC(C)=O)C2C(C)CC3OC(=O)C(C)C3CC2(C)C1OC(C)=O` (centres undefined): the T/C by setting is: under setting [2], 111 % of control; under setting [15], 110 % of control; under setting [12], 106 % of control.

Consider `CC1CN(CCC#N)CC(C)O1` (centres undefined), for which the T/C by setting is: (dose: 100.0 mg/kg/injection, schedule: Q01DX009 (ip), vehicle: saline) 95 % of control; (dose: 200.0 mg/kg/injection, schedule: Q01DX009 (ip), vehicle: saline) 95 % of control.

Turning to `Cc1cc(C)nc(NC(=O)COc2ccc(Cl)cc2)c1`, the T/C is 97 % of control under setting [5]; 97 % of control and 106 % of control under setting [16].

Turning to `C/C(Cc1ccccc1)=N\[N+](C)(C)C`, the T/C (dose: 75.0 mg/kg/injection, schedule: Q04DX003 (ip), vehicle: saline) was 109 % of control and the T/C (dose: 150.0 mg/kg/injection, schedule: Q04DX003 (ip), vehicle: saline) is 104 % of control.

For `CCCCCCCCCCCCCCCCCCN(C)C`, the T/C by setting is: under setting [4], 104 % of control; under setting [5], 107 % of control; under setting [6], 89 % of control and 101 % of control.

With `CCCCCCCCCCCC1=C(O)C(=O)C=C(O)C1=O`, the T/C by setting is: (dose: 6.25 mg/kg/injection, schedule: Q01DX009 (ip), vehicle: saline with Tween-80) 102 % of control; under setting [1], 96 % of control; under setting [2], 86 % of control.

For the compound `CC1OC(=O)C(C(C)C)NC(=O)C(C(C)C)OC(=O)C(C(C)C)NC(=O)C(C)OC(=O)C(C(C)C)NC(=O)C(C(C)C)OC(=O)C(C(C)C)NC(=O)C(C)OC(=O)C(C(C)C)NC(=O)C(C(C)C)OC(=O)C(C(C)C)NC1=O` (centres undefined), the T/C by setting is: (dose: 0.04 mg/kg/injection, schedule: Q01DX009 (ip), vehicle: saline with Tween-80) 101 % of control; (dose: 0.08 mg/kg/injection, schedule: Q01DX009 (ip), vehicle: saline with Tween-80) 106 % of control; (dose: 0.16 mg/kg/injection, schedule: Q01DX009 (ip), vehicle: saline with Tween-80) 117 % of control; (dose: 0.2 mg/kg/injection, schedule: Q01DX009 (ip), vehicle: DMSO) 117 % of control; (dose: 0.31 mg/kg/injection, schedule: Q01DX009 (ip), vehicle: saline with Tween-80) 152 % of control; (dose: 0.4 mg/kg/injection, schedule: Q01DX009 (ip), vehicle: DMSO) 176 % of control. Also, the T/C reads like this: (dose: 0.75 mg/kg/injection, schedule: Q01DX009 (ip), vehicle: Klucel (hydroxypropylcellulose) (HPC)) 106 % of control; (dose: 0.75 mg/kg/injection, schedule: Q01DX009 (oral), vehicle: Klucel (hydroxypropylcellulose) (HPC)) 101 % of control; (dose: 1.5 mg/kg/injection, schedule: Q01DX009 (ip), vehicle: Klucel (hydroxypropylcellulose) (HPC)) 101 % of control; (dose: 1.5 mg/kg/injection, schedule: Q01DX009 (oral), vehicle: Klucel (hydroxypropylcellulose) (HPC)) 104 % of control; (dose: 2.5 mg/kg/injection, schedule: Q01DX009 (ip), vehicle: saline with Tween-80) 153 % of control; (dose: 3.0 mg/kg/injection, schedule: Q01DX009 (oral), vehicle: Klucel (hydroxypropylcellulose) (HPC)) 105 % of control. The T/C by setting is: (dose: 5.0 mg/kg/injection, schedule: Q01DX009 (ip), vehicle: saline with Tween-80) 183 % of control; (dose: 5.0 mg/kg/injection, schedule: Q01DX009 (oral), vehicle: saline with Tween-80) 105 % of control; (dose: 6.0 mg/kg/injection, schedule: Q01DX009 (ip), vehicle: saline with Tween-80) 165 % of control; (dose: 6.0 mg/kg/injection, schedule: Q01DX009 (oral), vehicle: Klucel (hydroxypropylcellulose) (HPC)) 107 % of control; (dose: 10.0 mg/kg/injection, schedule: Q01DX009 (ip), vehicle: saline with Tween-80) 171 % of control; (dose: 10.0 mg/kg/injection, schedule: Q01DX009 (oral), vehicle: saline with Tween-80) 116 % of control. In addition, the T/C by setting is: (dose: 12.0 mg/kg/injection, schedule: Q01DX009 (oral), vehicle: Klucel (hydroxypropylcellulose) (HPC)) 100 % of control; (dose: 20.0 mg/kg/injection, schedule: Q01DX009 (ip), vehicle: saline with Tween-80) 94 % of control; (dose: 20.0 mg/kg/injection, schedule: Q01DX009 (oral), vehicle: saline with Tween-80) 116 % of control; (dose: 24.0 mg/kg/injection, schedule: Q01DX009 (oral), vehicle: Klucel (hydroxypropylcellulose) (HPC)) 94 % of control; (dose: 40.0 mg/kg/injection, schedule: Q01DX009 (oral), vehicle: saline with Tween-80) 109 % of control.

For the compound `N=C(N)SCc1c2ccccc2c(CSC(=N)N)c2ccccc12`, the T/C reads like this: under setting [9], 238 % of control; under setting [10], 285 % of control.

With `C/C=C/C=C1/OC(C)=C(C(C)=O)C1=O`, the T/C under setting [1] was 102 % of control and 111 % of control; the T/C under setting [2] was 102 % of control; the T/C under setting [15] is 102 % of control and 110 % of control; the T/C under setting [12] is 96 % of control and 109 % of control; the T/C under setting [13] is 104 % of control; the T/C under setting [14] was 98 % of control.

For the compound `CC1(C)N=C(N)N=C(N)N1c1ccc(OCC(=O)Nc2ccc(S(=O)(=O)F)cc2)c(Cl)c1`, the T/C is, setting by setting: (dose: 50.0 mg/kg/injection, schedule: Q04DX003 (ip), vehicle: saline) 107 % of control; (dose: 100.0 mg/kg/injection, schedule: Q04DX003 (ip), vehicle: saline) 124 % of control.

On to `Cc1ccc(C(=O)C=C(C(F)(F)F)C(F)(F)F)cc1`, for which the T/C was 111 % of control (dose: 6.25 mg/kg/injection, schedule: Q04DX003 (ip), vehicle: saline with Tween-80); 100 % of control (dose: 12.5 mg/kg/injection, schedule: Q04DX003 (ip), vehicle: saline with Tween-80); 105 % of control under setting [3].

For `O=c1oc(-c2ccco2)nc2ccccc12`, the T/C was 112 % of control under setting [16]; 106 % of control (dose: 100.0 mg/kg/injection, schedule: Q01DX009 (ip), vehicle: Klucel (hydroxypropylcellulose) (HPC)); 112 % of control (dose: 200.0 mg/kg/injection, schedule: Q01DX009 (ip), vehicle: Klucel (hydroxypropylcellulose) (HPC)).
